Reference: patent US20240002391A1, “4-ALKOXYPYRROLO[2,1-F][1,2,4]TRIAZINES AND PREPARATION AND USES THEREOF” (BioSplice Therapeutics, Inc., priority 2022, published 2024)

Target: recombinant DYRK1A kinase (Homo sapiens (Human), UniProt Q13627)
Assay: DYRK1A kinase assay (Ser/Thr 18 peptide Z-lyte FRET)
Format: biochemical
Settings: DYRK1A kinase activity, Z-lyte Ser/Thr 18 peptide, 15 μM ATP; method text calls the value IC50; read-out: EC50 (the source's name)
Method in brief: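 Z-lyte FRET read-out: coumarin (Em 455) over fluorescein (Em 520) emission ratio, converted to percent phosphorylation after 1 h development. Reaction: 0.25 μg/mL kinase, 15 μM ATP, 4 μM peptide, 1 h RT with compound, duplicate wells. IC50s fitted by non-linear regression.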

Row | SMILES | IC50
1 | COc1nc(N[C@H]2C[C@](C)(NC(=O)C3(C#N)CC3)C2)nn2ccc(-c3ccc4ncnn4c3)c12 [Compound 563, N-((1r,3r)-3-((5-([1,2,4]Triazolo[1,5-a]pyridin-6-yl)-4-methoxypyrrolo[2,1-f][1,2,4]triazin-2-yl)amino)-1-methylcyclobutyl)-1-cyanocyclopropane-1-carboxamide] | 1 nM
2 | COc1nc(N[C@H]2CC[C@](C)(O)CC2)nn2ccc(-c3ccc4nc(C)nn4c3)c12 [Compound 622, (1r,4r)-4-((4-Methoxy-5-(2-methyl-[1,2,4]triazolo[1,5-a]pyridin-6-yl)pyrrolo[2,1-f][1,2,4]triazin-2-yl)amino)-1-methylcyclohexan-1-ol] | 14.1 nM
3 | COc1nc(N[C@H]2C[C@](C)(C(=O)NC3CC(F)(F)C3)C2)nn2ccc(-c3ccc4ncccc4c3)c12 [Compound 1041, trans-N-(3,3-Difluorocyclobutyl)-3-((4-methoxy-5-(quinolin-6-yl)pyrrolo[2,1-f][1,2,4]triazin-2-yl)amino)-1-methylcyclobutane-1-carboxamide] | 0.9 nM
4 | COc1nc(N[C@@H]2CCN(C3COC3)CC2(F)F)nn2ccc(-c3cc(F)c4nnn(CC(F)F)c4c3)c12 [Compound 822, (R)—N-(3,3-Difluoro-1-(oxetan-3-yl)piperidin-4-yl)-5-(1-(2,2-difluoroethyl)-4-fluoro-1H-benzo[d][1,2,3]triazol-6-yl)-4-methoxypyrrolo[2,1-f][1,2,4]triazin-2-amine] | 1.8 nM
5 | COc1nc(N[C@@H]2CCN(C(C)=O)CC2(F)F)nn2ccc(-c3ccc4nnn(CC(F)F)c4c3)c12 [Compound 788, (R)-1-(4-((5-(1-(2,2-Difluoroethyl)-1H-benzo[d][1,2,3]triazol-6-yl)-4-methoxypyrrolo[2,1-f][1,2,4]triazin-2-yl)amino)-3,3-difluoropiperidin-1-yl)ethan-1-one] | 0.7 nM
6 | COc1nc(N[C@H]2C[C@](C)(C(=O)N3CCCC3)C2)nn2ccc(-c3ccc4nnn(C)c4c3)c12 [Compound 222, (trans-3-((4-methoxy-5-(1-methyl-1H-benzo[d][1,2,3]triazol-6-yl)pyrrolo[2,1-f][1,2,4]triazin-2-yl)amino)-1-methylcyclobutyl)(pyrrolidin-1-yl)methanone] | 3.5 nM
7 | c1cnc2cc(-c3ccn4nc(NC5CCC6(CC5)COC6)nc(OC5COC5)c34)ccc2n1 [Compound 1138, 4-(Oxetan-3-yloxy)-5-(quinoxalin-6-yl)-N-(2-oxaspiro[3.5]nonan-7-yl)pyrrolo[2,1-f][1,2,4]triazin-2-amine] | 3.3 nM
8 | COc1nc(NC2CCC(=O)N(C)C2)nn2ccc(-c3ccc4nnn(/C=C/F)c4c3)c12 (stereo not drawn) [Compound 673, (E)-5-((5-(1-(2-Fluorovinyl)-1H-benzo[d][1,2,3]triazol-6-yl)-4-methoxypyrrolo[2,1-f][1,2,4]triazin-2-yl)amino)-1-methylpiperidin-2-one] | 5.3 nM
9 | COc1nc(N[C@H]2CCN(C)C[C@H]2F)nn2ccc(-c3cnc4nccn4c3)c12 [Compound 268, N-((3R,4S)-3-Fluoro-1-methylpiperidin-4-yl)-5-(imidazo[1,2-a]pyrimidin-6-yl)-4-methoxypyrrolo[2,1-f][1,2,4]triazin-2-amine] | 5 nM
10 | COc1nc(N[C@H]2C[C@](C)(N)C2)nn2ccc(-c3ccc4ncnn4c3)c12 [Compound 190, trans-N^1-(5-([1,2,4]Triazolo[1,5-a]pyridin-6-yl)-4-methoxypyrrolo[2,1-f][1,2,4]triazin-2-yl)-3-methylcyclobutane-1,3-diamine] | 11.5 nM
11 | CN1CC[C@H](Nc2nc(OC3COC3)c3c(-c4ccc5ncccc5c4)ccn3n2)[C@H](F)C1 [Compound 1090, N-((3R,4S)-3-Fluoro-1-methylpiperidin-4-yl)-4-(oxetan-3-yloxy)-5-(quinolin-6-yl)pyrrolo[2,1-f][1,2,4]triazin-2-amine] | 5.7 nM
12 | COCC(=O)N[C@]1(C)C[C@@H](Nc2nc(OC)c3c(-c4ccc5nnn(C)c5c4)ccn3n2)C1 [Compound 208, 2-Methoxy-N-(trans-3-((4-methoxy-5-(1-methyl-1H-benzo[d][1,2,3]triazol-6-yl)pyrrolo[2,1-f][1,2,4]triazin-2-yl)amino)-1-methylcyclobutyl)acetamide] | 0.5 nM
13 | COc1nc(NC2CCC(C)(C#N)CC2)nn2ccc(-c3cnc4nccn4c3)c12 (stereo not drawn) [Compound 948, 4-((5-(Imidazo[1,2-a]pyrimidin-6-yl)-4-methoxypyrrolo[2,1-f][1,2,4]triazin-2-yl)amino)-1-methylcyclohexane-1-carbonitrile] | 0.4 nM
14 | COc1nc(N[C@@H]2CCN(C(C)=O)CC2(F)F)nn2cc(F)c(-c3ccc4ncccc4c3)c12 [Compound 1064, (R)-1-(3,3-Difluoro-4-((6-fluoro-4-methoxy-5-(quinolin-6-yl)pyrrolo[2,1-f][1,2,4]triazin-2-yl)amino)piperidin-1-yl)ethan-1-one] | 2 nM
15 | COc1nc(N[C@H]2CCN(C3COC3)CC2(F)F)nn2ccc(-c3ccc4nc(C)n(CC(F)F)c4c3)c12 [Compound 143, (S)—N-(3,3-Difluoro-1-(oxetan-3-yl)piperidin-4-yl)-5-(1-(2,2-difluoroethyl)-2-methyl-1H-benzo[d]imidazol-6-yl)-4-methoxypyrrolo[2,1-f][1,2,4]triazin-2-amine] | 10.8 nM
16 | COc1nc(N[C@@H]2CCC(=O)N(C)C2)nn2ccc(-c3ccc4nccnc4c3)c12 [Compound 1097, (R)-5-((4-Methoxy-5-(quinoxalin-6-yl)pyrrolo[2,1-f][1,2,4]triazin-2-yl)amino)-1-methylpiperidin-2-one] | 2.7 nM
17 | COc1nc(N[C@@H]2CCN(C(C)=O)CC2(F)F)nn2ccc(-c3cc(F)c4nnn(CC(F)F)c4c3)c12 [Compound 821, (R)-1-(4-((5-(1-(2,2-Difluoroethyl)-4-fluoro-1H-benzo[d][1,2,3]triazol-6-yl)-4-methoxypyrrolo[2,1-f][1,2,4]triazin-2-yl)amino)-3,3-difluoropiperidin-1-yl)ethan-1-one] | 1.9 nM
18 | COc1nc(NC2CCOCC2)nn2ccc(-c3ccc4nccnc4c3)c12 [Compound 366, 4-Methoxy-5-(quinoxalin-6-yl)-N-(tetrahydro-2H-pyran-4-yl)pyrrolo[2,1-f][1,2,4]triazin-2-amine] | 2.5 nM
19 | COc1nc(N[C@H]2C[C@](C)(NC(C)=O)C2)nn2ccc(-c3cnc4nccn4c3)c12 [Compound 935, N-((1r,3r)-3-((5-(Imidazo[1,2-a]pyrimidin-6-yl)-4-methoxypyrrolo[2,1-f][1,2,4]triazin-2-yl)amino)-1-methylcyclobutyl)acetamide] | 1.2 nM
20 | COCC(=O)N[C@]1(C)C[C@H](Nc2nc(OC)c3c(-c4ccc5nccnc5c4)ccn3n2)C1 [Compound 336, 2-Methoxy-N-(cis-3-((4-methoxy-5-(quinoxalin-6-yl)pyrrolo[2,1-f][1,2,4]triazin-2-yl)amino)-1-methylcyclobutyl)acetamide] | 1.3 nM
21 | COc1nc(N[C@@H]2CCN(C3COC3)CC2(F)F)nn2ccc(-c3ccc4nnn(CC(F)F)c4c3)c12 [Compound 785, (R)—N-(3,3-Difluoro-1-(oxetan-3-yl)piperidin-4-yl)-5-(1-(2,2-difluoroethyl)-1H-benzo[d][1,2,3]triazol-6-yl)-4-methoxypyrrolo[2,1-f][1,2,4]triazin-2-amine] | 0.5 nM
